The target of the first assay is T1, substance P receptors (Homo sapiens, UniProt P25103).
T1 construct: The receptor was prepared from human lymphoblast cells (IM-9); endogenous in cells; host or cells: IM-9 human lymphoblast cells (membrane preparation)
T1 sequence (P25103 whole entry): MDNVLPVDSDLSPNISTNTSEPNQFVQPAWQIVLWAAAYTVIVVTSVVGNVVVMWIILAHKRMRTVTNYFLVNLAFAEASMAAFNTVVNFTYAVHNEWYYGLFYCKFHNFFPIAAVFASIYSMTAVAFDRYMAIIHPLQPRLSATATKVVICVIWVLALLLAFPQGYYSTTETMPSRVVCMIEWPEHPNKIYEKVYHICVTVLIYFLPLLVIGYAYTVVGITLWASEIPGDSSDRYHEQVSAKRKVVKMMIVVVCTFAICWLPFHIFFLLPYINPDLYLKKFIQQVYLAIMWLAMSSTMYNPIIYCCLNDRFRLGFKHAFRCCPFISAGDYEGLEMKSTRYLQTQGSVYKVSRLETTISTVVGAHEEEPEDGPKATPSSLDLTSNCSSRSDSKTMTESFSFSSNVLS
As to the kind of experiment: Radioligand receptor binding inhibitory activity using receptor from human lymphoblast cells (IM-9), 125I-BHSP. The settings on record: IC50 (concentration necessary to cause 50% inhibition), radioligand 125I-BHSP, 25° C., 30 minutes. As for the experimental part: Radioligand receptor binding inhibitory activity (Binding inhibitory activity using receptor from human lymphoblast cells (IM-9))
The method of M. A. Cascieri et al., [Molecular Pharmacology, vol. 42, p. […] The receptor was prepared from human lymphoblast cells (IM-9). IM-9 cells (2×10^5 cells/mL) were incubated for 3 days (one liter), which was then subjected to centrifugation for 5 minutes at 500×G to obtain cell pellets. […] The residue was washed twice with 30 mL of the above-mentioned buffer, which was then preserved frozen (−80° C.) as a specimen of the receptor.
The specimen was suspended in a reaction buffer (50 mM Tri-HCl buffer (pH 7.4), 0.02% bovine serum albumin, 1 mM phenylmethylsulfonyl fluoride, 2 μg/mL chymostatin, 40 μg/mL bacitracin and 3 mM manganese chloride) to have protein in the concentration of 0.5 mg/mL of protein and 100 μL portion of the suspension was used in the reaction. […] The amount of nonspecific binding was determined by adding substance P at a final concentration of 2×10^−6 M.
After the reaction, using a cell harvester (290 PHD, Cambridge Technology, Inc., U.S.A.), filtration was carried out through a glass filter (GF/B, Whatman, U.S.A.), which was immersed in 0.1% polyethyleneimine for 24 hours and dried. After washing three times with 250 μL of 50 mM Tris-HCl buffer (pH 7.4) containing 0.02% bovine serum albumin, the radioactivity remaining on the filter was determined with a gamma counter.
On to `COc1ccc(-c2ccc(C#N)cc2)cc1CN[C@H]1CCN(C(=O)C2CCN(C(C)=O)CC2)C[C@H]1c1ccccc1` [Example 35, 3′-[({(3R,4S)-1-[(1-acetylpiperidin-4-yl)carbonyl]-3-phenylpiperidin-4-yl}amino)methyl]-4′-methoxybiphenyl-4-carbonitrile], for which the IC50 turned out to be 0.017 nM.

The same assay, now with this note: radioligand 125I-BHSP, 25° C., 30 minutes, read-out: IC50 (concentration necessary to cause 50% inhibition).
Turning to `COc1ccc(-c2ccc(C#N)cc2)cc1CN[C@H]1CCN(C(=O)CNC(C)=O)C[C@H]1c1ccccc1` [Example 10, N-[2-((3R,4S)-4-{[(4′-cyano-4-methoxybiphenyl-3-yl)methyl]amino}-3-phenylpiperidin-1-yl)-2-oxoethyl]acetamide], the IC50 turned out to be 0.019 nM. The same measure, in the same setting: under `COc1ccc(-c2ccc(C#N)cc2F)cc1CN[C@H]1CCN(C(=O)CNC(C)=O)C[C@H]1c1ccccc1` [Example 11, N-[2-((3R,4S)-4-{[(4′-cyano-2′-fluoro-4-methoxybiphenyl-3-yl)methyl]amino}-3-phenylpiperidin-1-yl)-2-oxoethyl]acetamide] stands 0.016 nM.

Turning to `COc1ccc(-c2ccc(Cl)cc2)cc1CN[C@H]1CCN(C(=O)CNC(C)=O)C[C@H]1c1ccccc1` [Example 15, N-[2-((3R,4S)-4-{[(4′-chloro-4-methoxybiphenyl-3-yl)methyl]amino}-3-phenylpiperidin-1-yl)-2-oxoethyl]acetamide], the IC50 is 0.02 nM. With `COc1ccc(-c2ccc(F)cc2)cc1CN[C@H]1CCN(C(=O)CNC(C)=O)C[C@H]1c1ccccc1` [Example 16, N-[2-((3R,4S)-4-{[(4′-fluoro-4-methoxybiphenyl-3-yl)methyl]amino}-3-phenylpiperidin-1-yl)-2-oxoethyl]acetamide], the IC50 was 0.031 nM. Same read-out and setting: under `COc1ccc(-c2ccc(C)cc2)cc1CN[C@H]1CCN(C(=O)CNC(C)=O)C[C@H]1c1ccccc1` [Example 17, N-[2-((3R,4S)-4-{[(4-methoxy-4′-methylbiphenyl-3-yl)methyl]amino}-3-phenylpiperidin-1-yl)-2-oxoethyl]acetamide] stands 0.022 nM. The same measure, in the same setting: under `COc1ccc(-c2ccc(C(F)(F)F)cc2)cc1CN[C@H]1CCN(C(=O)CNC(C)=O)C[C@H]1c1ccccc1` [Example 18, N-{2-[(3R,4S)-4-({[4-methoxy-4′-(trifluoromethyl)biphenyl-3-yl]methyl}amino)-3-phenylpiperidin-1-yl]-2-oxoethyl}acetamide] stands 0.036 nM. Same read-out and setting: with `COc1ccc(-c2ccc(C#N)c(F)c2)cc1CN[C@H]1CCN(C(=O)CNC(C)=O)C[C@H]1c1ccccc1` [Example 21, N-[2-((3R,4S)-4-{[(4′-cyano-3′-fluoro-4-methoxybiphenyl-3-yl)methyl]amino}-3-phenylpiperidin-1-yl)-2-oxoethyl]acetamide] the figure was 0.019 nM. `COc1ccc(-c2ccc(Br)cc2)cc1CN[C@H]1CCN(C(=O)CNC(C)=O)C[C@H]1c1ccccc1` [Example 22, N-[2-((3R,4S)-4-{[(4′-bromo-4-methoxybiphenyl-3-yl)methyl]amino}-3-phenylpiperidin-1-yl)-2-oxoethyl]acetamide]: the IC50 stood at 0.018 nM. On the same count and under the same terms, with `C#Cc1ccc(-c2ccc(OC)c(CN[C@H]3CCN(C(=O)CNC(C)=O)C[C@H]3c3ccccc3)c2)cc1` [Example 23, N-[2-((3R,4S)-4-{[(4′-ethynyl-4-methoxybiphenyl-3-yl)methyl]amino}-3-phenylpiperidin-1-yl)-2-oxoethyl]acetamide] the figure was 0.015 nM. Same read-out and setting: with `COc1ccc(-c2ccc(C#N)cc2C)cc1CN[C@H]1CCN(C(=O)CNC(C)=O)C[C@H]1c1ccccc1` [Example 25, N-[2-((3R,4S)-4-{[(4′-cyano-4-methoxy-2′-methylbiphenyl-3-yl)methyl]amino}-3-phenylpiperidin-1-yl)-2-oxoethyl]acetamide] the figure was 0.018 nM; with `COCC(=O)N1CC[C@H](NCc2cc(-c3ccc(C#N)cc3)ccc2OC)[C@H](c2ccccc2)C1` [Example 32, 4′-methoxy-3′-({[(3R,4S)-1-(methoxyacetyl)-3-phenylpiperidin-4-yl]amino}methyl)biphenyl-4-carbonitrile], 0.015 nM. On the same count and under the same terms, under `COCC(=O)N1CC[C@H](NCc2cc(-c3ccc(C#N)cc3F)ccc2OC)[C@H](c2ccccc2)C1` [Example 33, 2-fluoro-4′-methoxy-3′-({[(3R,4S)-1-(methoxyacetyl)-3-phenylpiperidin-4-yl]amino}methyl)biphenyl-4-carbonitrile] stands 0.015 nM; under `COc1ccc(-c2ccc(C#N)cc2F)cc1CN[C@H]1CCN(C(=O)C2CCN(C(C)=O)CC2)C[C@H]1c1ccccc1` [Example 36, 3′-[({(3R,4S)-1-[(1-acetylpiperidin-4-yl)carbonyl]-3-phenylpiperidin-4-yl}amino)methyl]-2-fluoro-4′-methoxybiphenyl-4-carbonitrile], 0.017 nM; under `COc1ccc(-c2ccc(C#N)cc2)cc1CN[C@H]1CCN(C(=O)[C@@H](CC(N)=O)NC(C)=O)C[C@H]1c1ccccc1` [Example 41, (3R)-3-(acetylamino)-4-((3R,4S)-4-{[(4′-cyano-4-methoxybiphenyl-3-yl)methyl]amino}-3-phenylpiperidin-1-yl)-4-oxobutanamide], 0.019 nM. For the compound `COc1ccc(-c2ccc(C#N)cc2)cc1CN[C@H]1CCN(C(=O)C2CC(=O)NC(=O)C2)C[C@H]1c1ccccc1` [Example 42, 3′-[({(3R,4S)-1-[(2,6-dioxopiperidin-4-yl)carbonyl]-3-phenylpiperidin-4-yl}amino)methyl]-4′-methoxybiphenyl-4-carbonitrile], the IC50 was 0.014 nM. The same measure, in the same setting: with `COc1ccc(-c2ccc(C#N)cc2)cc1CN[C@H]1CCN(C(=O)Cn2cnnn2)C[C@H]1c1ccccc1` [Example 43, 4′-methoxy-3′-({[(3R,4S)-3-phenyl-1-(1H-tetrazol-1-ylacetyl)piperidin-4-yl]amino}methyl)biphenyl-4-carbonitrile] the figure was 0.015 nM; with `COc1ccc(-c2ccc(C#N)cc2)cc1CN[C@H]1CCN(C(=O)Cc2n[nH]c(=O)[nH]2)C[C@H]1c1ccccc1` [Example 44, 4′-methoxy-3′-[({(3R,4S)-1-[(5-oxo-4,5-dihydro-1H-1,2,4-triazol-3-yl)acetyl]-3-phenylpiperidin-4-yl}amino)methyl]biphenyl-4-carbonitrile], 0.015 nM; with `CC(=O)NCC(=O)N1CC[C@H](NCc2cc(-c3ccc(Cl)cc3)ccc2OC(F)(F)F)[C@H](c2ccccc2)C1` [Example 72, N-{2-[(3R,4S)-4-({[4′-chloro-4-(trifluoromethoxy)biphenyl-3-yl]methyl}amino)-3-phenylpiperidin-1-yl]-2-oxoethyl}acetamide], 0.023 nM. Consider `CC1(C)OC(=O)N(CC(=O)N2CC[C@H](NCc3cc(-c4ccc(C#N)cc4F)ccc3OC(F)(F)F)[C@H](c3ccccc3)C2)C1=O` [Example 96, 3′-[({(3R,4S)-1-[(5,5-dimethyl-2,4-dioxo-1,3-oxazolidin-3-yl)acetyl]-3-phenylpiperidin-4-yl}amino)methyl]-2-fluoro-4′-(trifluoromethoxy)biphenyl-4-carbonitrile], for which the IC50 came to 0.021 nM. Still for that read-out and setting: with `CC1(C)OC(=O)N(CC(=O)N2CC[C@H](NCc3cc(-c4ccc(C#N)cc4F)ccc3OC(F)(F)F)[C@H](c3ccccc3)C2)C1=O` [Example 97, 3′-[({(3R,4S)-1-[(5,5-dimethyl-2,4-dioxo-1,3-oxazolidin-3-yl)acetyl]-3-phenylpiperidin-4-yl}amino)methyl]-2-fluoro-4′-(trifluoromethoxy)biphenyl-4-carbonitrile] the figure was 0.023 nM; with `CC(=O)N1CCC(C(=O)N2CC[C@H](NCc3cc(-c4ccc(C#N)cc4F)ccc3OC(F)(F)F)[C@H](c3ccccc3)C2)CC1` [Example 101, 3′-[({(3R,4S)-1-[(1-acetylpiperidin-4-yl)carbonyl]-3-phenylpiperidin-4-yl}amino)methyl]-2-fluoro-4′-(trifluoromethoxy)biphenyl-4-carbonitrile], 0.024 nM; with `N#Cc1ccc(-c2ccc(OC(F)(F)F)c(CN[C@H]3CCN(C(=O)C4CC(=O)NC(=O)C4)C[C@H]3c3ccccc3)c2)c(F)c1` [Example 102, 3′-[({(3R,4S)-1-[(2,6-dioxopiperidin-4-yl)carbonyl]-3-phenylpiperidin-4-yl}amino)methyl]-2-fluoro-4′-(trifluoromethoxy)biphenyl-4-carbonitrile], 0.013 nM. The same measure, in the same setting: under `CC1(C)OC(=O)N(CC(=O)N2CC[C@H](NCc3cc(-c4ccc(Cl)cc4)ccc3OC(F)(F)F)[C@H](c3ccccc3)C2)C1=O` [Example 116, 3-{2-[(3R,4S)-4-({[4′-chloro-4-(trifluoromethoxy)biphenyl-3-yl]methyl}amino)-3-phenylpiperidin-1-yl]-2-oxoethyl}-5,5-dimethyl-1;3-oxazolidine-2,4-dione] stands 0.058 nM.

As for `O=C1CC(C(=O)N2CC[C@H](NCc3cc(-c4ccc(Cl)cc4F)ccc3OC(F)(F)F)[C@H](c3ccccc3)C2)CC(=O)N1` [Example 132, 4-{[(3R,4S)-4-({[4′-chloro-2′-fluoro-4-(trifluoromethoxy)biphenyl-3-yl]methyl}amino)-3-phenylpiperidin-1-yl]carbonyl}piperidine-2,6-dione], the IC50 is 0.14 nM.

The record behind these values is patent US20070149570A1, “Piperidine derivative and use thereof” (priority 2005, published 2007).
